From US12557829B2, “Liquid-phase, supplementary feed composition containing coenzyme Q10” (priority 2021, dated 2026)
Read-outs that look alike come from different tables or passages of the source.

Assay: Single intravenous administration, plasma concentration of coenzyme Q10
Format: in vivo
Conditions: rat, 6 mg/kg, rats
Procedure: The supplementary feed composition containing coenzyme Q10 was orally administered to rats for 5 consecutive days, and systemic absorption was examined after oral administration on the 5th day. In addition, a single intravenous injection test was performed to evaluate the absorption rate (bioavailability).
Single Intravenous Administration Experiment
Plasma concentration measurement after intravenous coenzyme Q10 administration: dose (6 mg/kg), measured up to 6 hours
Plasma Collection after Intravenous Administration
After lightly anesthetizing the rats with ether, a polyethylene tube (PE-50, Intramedic, Clay Adams, USA) was intubated into the left femoral artery and vein. After the rats recovered from anesthesia, coenzyme Q10 was intravenously administered (6 mg/kg), and blood was collected from the left femoral artery at 0 (blank), 1, 5, 10, 15, 30, 60, 90, 120 and 180 minutes. 250 μl of blood was received in a microtube, and 100 μl of plasma obtained after centrifugation was used for quantification.
Quantification of the Concentration of Coenzyme Q10 in Plasma
For coenzyme Q10, a calibration curve was prepared in which a good linear relationship (R=0.999) was established in the concentration range of 0.05 μg/mL to 10 μg/mL. […] 100 μL of this was taken and quantified by the HPLC assay described above.

half-life (read-out: half-life (t1/2,α) in the pre-distribution phase (α phase)): 3.3 min
half-life (read-out: half-life (t1/2,β) in the post-distribution phase (β phase)): 52 min
Structure (SMILES): COC1=C(OC)C(=O)C(C/C=C(\C)CC/C=C(\C)CC/C=C(\C)CC/C=C(\C)CC/C=C(\C)CC/C=C(\C)CC/C=C(\C)CC/C=C(\C)CC/C=C(\C)CCC=C(C)C)=C(C)C1=O [coenzyme Q10, 2,3-dimethoxy-5-methyl-6-decaprenyl-1,4-benzoquinone]
